Results on 42 targets are retold here after the supplement of paper PMC12463676, “Small-molecule dissolution of stress granules by redox modulation benefits ALS models” (Nature Chemical Biology, 2025).

Compound in one experiment: NC(=O)CCCCC1CCSS1 [lipoamide]
As to the kind of experiment: thermal stability z-score vs DMSO; higher = more thermally stabilized by treatment. The following applies: HeLa, lipoamide concentration 100 µM. The method, then: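 Cellular thermal proteome profiling in HeLa cells. Cells were treated with 100 µM lipoamide for 1 h, with or without 1 mM arsenate for a further 1 h, then heated to ten temperatures (37-66.3 °C), and soluble protein was quantified by TMT mass spectrometry relative to 0.1% DMSO controls. The thermal stability score (sum of log2 fold changes minus the abundance score) was transformed to a z-score; mean of n = 3 experiments.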

Compound in another experiment: O=[As]([O-])(O)O.[K+] [potassium arsenate]
Described as above. As to conditions: HeLa; arsenate concentration 1 mM. The protocol:
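Cellular thermal proteome profiling in HeLa cells treated with 1 mM arsenate for 1 h (DMSO pretreatment), heated to ten temperatures (37-66.3 °C). Soluble protein was quantified by TMT mass spectrometry relative to DMSO controls; the thermal stability score was transformed to a z-score; mean of n = 3 experiments.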

Setting [1] is: arsenate co-treatment: 1 mM arsenate 1 h.
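Note: each temperature applied for 3 min, abundance score taken as mean log2 fold change at the two lowest temperatures, z-score obtained by mean subtraction and division by SD.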

UniProt O75943, sequence (O75943 whole entry): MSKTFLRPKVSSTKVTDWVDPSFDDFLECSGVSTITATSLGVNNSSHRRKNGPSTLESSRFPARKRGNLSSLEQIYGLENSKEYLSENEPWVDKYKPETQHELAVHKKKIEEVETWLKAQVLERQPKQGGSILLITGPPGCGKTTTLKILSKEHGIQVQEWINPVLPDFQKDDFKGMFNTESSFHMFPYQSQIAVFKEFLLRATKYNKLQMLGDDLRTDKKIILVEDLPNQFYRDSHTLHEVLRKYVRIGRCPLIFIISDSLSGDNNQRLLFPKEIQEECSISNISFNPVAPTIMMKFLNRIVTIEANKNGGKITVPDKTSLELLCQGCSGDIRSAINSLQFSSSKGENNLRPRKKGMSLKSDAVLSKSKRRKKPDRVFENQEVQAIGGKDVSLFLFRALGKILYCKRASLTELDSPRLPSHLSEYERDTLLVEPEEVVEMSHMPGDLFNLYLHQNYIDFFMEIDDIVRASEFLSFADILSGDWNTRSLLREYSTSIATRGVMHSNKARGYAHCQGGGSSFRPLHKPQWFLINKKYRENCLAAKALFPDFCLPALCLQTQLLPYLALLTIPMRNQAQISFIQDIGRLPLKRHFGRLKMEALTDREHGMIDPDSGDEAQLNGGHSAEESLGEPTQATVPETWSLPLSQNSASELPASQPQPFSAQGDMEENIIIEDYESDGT
UniProt Q2TAM9, sequence (Q2TAM9 whole entry): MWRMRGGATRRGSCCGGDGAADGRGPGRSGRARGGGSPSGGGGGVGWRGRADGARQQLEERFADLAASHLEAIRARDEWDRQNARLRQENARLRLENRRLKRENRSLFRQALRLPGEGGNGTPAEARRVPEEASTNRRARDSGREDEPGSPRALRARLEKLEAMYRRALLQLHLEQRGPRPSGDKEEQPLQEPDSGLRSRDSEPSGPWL
UniProt O43852, sequence (O43852 whole entry): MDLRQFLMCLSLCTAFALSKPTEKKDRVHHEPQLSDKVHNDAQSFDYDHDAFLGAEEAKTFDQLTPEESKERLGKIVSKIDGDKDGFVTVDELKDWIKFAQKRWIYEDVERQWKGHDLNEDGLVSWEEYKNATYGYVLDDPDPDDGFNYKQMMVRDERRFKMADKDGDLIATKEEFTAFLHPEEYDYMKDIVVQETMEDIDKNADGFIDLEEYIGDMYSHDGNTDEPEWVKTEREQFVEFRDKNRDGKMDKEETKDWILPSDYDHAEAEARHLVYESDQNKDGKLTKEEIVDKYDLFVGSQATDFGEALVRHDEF
UniProt P60033, sequence (P60033 whole entry): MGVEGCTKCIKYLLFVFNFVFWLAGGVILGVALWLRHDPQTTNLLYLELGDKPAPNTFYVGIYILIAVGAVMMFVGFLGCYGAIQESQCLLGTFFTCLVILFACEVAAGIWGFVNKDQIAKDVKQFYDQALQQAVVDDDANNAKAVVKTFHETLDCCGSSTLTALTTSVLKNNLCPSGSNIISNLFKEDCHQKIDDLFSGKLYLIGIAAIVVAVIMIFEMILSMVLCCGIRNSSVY
UniProt Q0PNE2, sequence (Q0PNE2 whole entry): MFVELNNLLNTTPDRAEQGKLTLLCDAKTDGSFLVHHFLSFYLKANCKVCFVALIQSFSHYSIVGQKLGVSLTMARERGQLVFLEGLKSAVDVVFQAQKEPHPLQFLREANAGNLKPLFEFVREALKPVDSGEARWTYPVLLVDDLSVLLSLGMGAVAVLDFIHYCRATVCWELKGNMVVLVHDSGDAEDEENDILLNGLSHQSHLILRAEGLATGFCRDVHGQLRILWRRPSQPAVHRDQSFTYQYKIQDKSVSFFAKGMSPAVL
UniProt Q9UJV9, sequence (Q9UJV9 whole entry): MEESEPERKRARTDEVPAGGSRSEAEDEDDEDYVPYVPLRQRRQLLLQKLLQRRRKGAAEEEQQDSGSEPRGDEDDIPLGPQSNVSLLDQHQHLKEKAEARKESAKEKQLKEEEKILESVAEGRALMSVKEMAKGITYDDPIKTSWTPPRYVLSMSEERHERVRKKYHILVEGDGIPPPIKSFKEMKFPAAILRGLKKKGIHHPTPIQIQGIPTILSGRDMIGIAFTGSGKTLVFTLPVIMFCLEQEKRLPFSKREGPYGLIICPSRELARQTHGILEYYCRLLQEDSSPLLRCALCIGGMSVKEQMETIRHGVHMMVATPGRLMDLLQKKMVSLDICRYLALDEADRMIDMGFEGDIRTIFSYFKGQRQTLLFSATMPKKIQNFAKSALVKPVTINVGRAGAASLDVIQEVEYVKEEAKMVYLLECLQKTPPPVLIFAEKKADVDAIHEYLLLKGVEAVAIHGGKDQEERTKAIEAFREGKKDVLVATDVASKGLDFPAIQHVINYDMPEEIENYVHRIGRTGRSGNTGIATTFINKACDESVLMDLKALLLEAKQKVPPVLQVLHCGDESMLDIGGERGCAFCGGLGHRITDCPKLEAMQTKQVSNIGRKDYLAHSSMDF
UniProt P49336, sequence (P49336 whole entry): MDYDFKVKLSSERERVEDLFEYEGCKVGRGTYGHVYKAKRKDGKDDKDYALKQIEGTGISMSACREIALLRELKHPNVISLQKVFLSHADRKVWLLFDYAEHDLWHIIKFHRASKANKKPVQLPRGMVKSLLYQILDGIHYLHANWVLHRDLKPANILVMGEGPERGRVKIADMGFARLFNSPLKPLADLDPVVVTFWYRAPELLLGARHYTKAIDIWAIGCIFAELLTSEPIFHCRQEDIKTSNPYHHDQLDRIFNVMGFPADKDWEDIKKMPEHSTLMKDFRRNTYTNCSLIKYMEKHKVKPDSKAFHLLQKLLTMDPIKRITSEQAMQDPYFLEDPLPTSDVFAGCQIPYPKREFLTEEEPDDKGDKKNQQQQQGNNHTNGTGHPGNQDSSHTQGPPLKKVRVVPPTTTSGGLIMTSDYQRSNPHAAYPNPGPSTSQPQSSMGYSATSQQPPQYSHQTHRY
UniProt Q92667, sequence (Q92667 whole entry): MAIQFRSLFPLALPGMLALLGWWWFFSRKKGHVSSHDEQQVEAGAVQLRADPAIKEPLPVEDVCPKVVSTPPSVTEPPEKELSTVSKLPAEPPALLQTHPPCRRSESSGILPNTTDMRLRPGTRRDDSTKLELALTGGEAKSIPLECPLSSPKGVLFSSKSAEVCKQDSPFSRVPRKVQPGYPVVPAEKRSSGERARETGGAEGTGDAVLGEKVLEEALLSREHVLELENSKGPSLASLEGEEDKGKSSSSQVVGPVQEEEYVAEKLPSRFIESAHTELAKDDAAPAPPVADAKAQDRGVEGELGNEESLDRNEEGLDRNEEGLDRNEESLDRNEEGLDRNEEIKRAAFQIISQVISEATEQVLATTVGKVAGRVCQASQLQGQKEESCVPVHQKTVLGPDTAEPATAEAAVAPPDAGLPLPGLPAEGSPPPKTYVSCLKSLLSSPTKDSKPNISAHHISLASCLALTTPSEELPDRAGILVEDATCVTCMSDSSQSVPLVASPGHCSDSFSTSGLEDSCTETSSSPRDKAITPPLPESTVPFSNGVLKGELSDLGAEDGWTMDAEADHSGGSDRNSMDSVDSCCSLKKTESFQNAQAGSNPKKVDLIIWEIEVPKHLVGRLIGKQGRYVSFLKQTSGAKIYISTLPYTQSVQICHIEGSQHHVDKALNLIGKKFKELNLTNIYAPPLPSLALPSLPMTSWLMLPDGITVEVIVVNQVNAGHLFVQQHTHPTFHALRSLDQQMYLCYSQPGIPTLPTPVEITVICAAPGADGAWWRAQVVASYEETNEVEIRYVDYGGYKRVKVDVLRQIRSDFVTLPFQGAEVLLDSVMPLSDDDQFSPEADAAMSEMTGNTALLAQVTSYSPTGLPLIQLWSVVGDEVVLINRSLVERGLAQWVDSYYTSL
UniProt Q9BQE3, sequence (Q9BQE3 whole entry): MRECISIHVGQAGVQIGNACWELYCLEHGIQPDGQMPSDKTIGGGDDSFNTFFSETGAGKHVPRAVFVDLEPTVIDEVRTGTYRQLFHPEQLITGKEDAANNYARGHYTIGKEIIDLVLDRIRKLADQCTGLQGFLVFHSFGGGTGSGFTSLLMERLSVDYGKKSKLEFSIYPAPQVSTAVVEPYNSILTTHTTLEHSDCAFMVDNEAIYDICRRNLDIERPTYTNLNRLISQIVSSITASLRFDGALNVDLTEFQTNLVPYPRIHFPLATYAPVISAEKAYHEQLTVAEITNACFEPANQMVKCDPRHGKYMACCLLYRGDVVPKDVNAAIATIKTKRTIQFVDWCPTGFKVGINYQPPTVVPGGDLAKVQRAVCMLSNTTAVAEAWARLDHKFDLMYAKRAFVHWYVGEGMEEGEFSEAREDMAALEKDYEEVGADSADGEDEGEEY
UniProt Q9H6Q4, sequence (Q9H6Q4 whole entry): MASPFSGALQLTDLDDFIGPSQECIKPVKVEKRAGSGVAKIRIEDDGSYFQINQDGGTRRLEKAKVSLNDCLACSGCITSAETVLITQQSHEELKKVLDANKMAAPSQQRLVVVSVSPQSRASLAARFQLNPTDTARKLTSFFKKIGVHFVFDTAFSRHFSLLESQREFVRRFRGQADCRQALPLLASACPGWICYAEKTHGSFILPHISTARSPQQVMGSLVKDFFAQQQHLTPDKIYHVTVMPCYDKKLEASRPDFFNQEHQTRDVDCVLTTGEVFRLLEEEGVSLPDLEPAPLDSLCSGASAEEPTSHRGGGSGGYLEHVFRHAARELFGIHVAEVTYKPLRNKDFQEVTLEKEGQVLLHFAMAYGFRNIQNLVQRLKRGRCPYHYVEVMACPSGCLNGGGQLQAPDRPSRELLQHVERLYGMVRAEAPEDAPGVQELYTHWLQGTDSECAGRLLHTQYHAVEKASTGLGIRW
UniProt P61966, sequence (P61966 whole entry): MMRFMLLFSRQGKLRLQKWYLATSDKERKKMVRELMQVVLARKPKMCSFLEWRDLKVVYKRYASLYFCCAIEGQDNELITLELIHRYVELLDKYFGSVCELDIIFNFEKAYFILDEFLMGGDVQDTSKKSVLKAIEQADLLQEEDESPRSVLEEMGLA
UniProt Q15651, sequence (Q15651 whole entry): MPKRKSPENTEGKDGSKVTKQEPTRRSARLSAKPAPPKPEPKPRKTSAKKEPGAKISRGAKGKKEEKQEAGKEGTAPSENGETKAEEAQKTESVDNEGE

Take TUBA1C (UniProt Q9BQE3): the thermal stability z-score with lipoamide (setting [1]) is -0.163; with lipoamide (arsenate co-treatment: none), 0.681; with potassium arsenate, -0.265.
Consider TRUB2 (UniProt O95900), for which the thermal stability z-score with lipoamide (setting [1]) is 0.00158; in the experiment with lipoamide (arsenate co-treatment: none), 0.0663; in the experiment with potassium arsenate, -0.133.
Take DDX41 (UniProt Q9UJV9): the results for the thermal stability z-score in the experiment with lipoamide (setting [1]), with lipoamide (arsenate co-treatment: none) and with potassium arsenate were -0.196, -0.0709 and -0.204, respectively.
The corresponding values for ARFGAP1 (UniProt Q8N6T3) are -0.303, 0.304 and 0.357.
As to FAM213A (UniProt Q9BRX8), the thermal stability z-score was -0.192 with lipoamide (setting [1]), -0.476 with lipoamide (arsenate co-treatment: none) and -0.29 in the experiment with potassium arsenate.
As for SIPA1L2 (UniProt Q9P2F8), the thermal stability z-score with lipoamide (setting [1]) was 0.197; in the experiment with lipoamide (arsenate co-treatment: none) it was 0.0316; with potassium arsenate, -0.149.
The corresponding values for TYW1 (UniProt Q9NV66) are -0.0973, 0.228 and 1.04.
In the case of RP2 (UniProt O75695), the thermal stability z-score is 0.38 in the experiment with lipoamide (setting [1]), 1.49 in the experiment with lipoamide (arsenate co-treatment: none) and -0.738 in the experiment with potassium arsenate.
Regarding PCGF5 (UniProt Q86SE9), the thermal stability z-score was 0.0387 in the experiment with lipoamide (setting [1]), 0.0817 with lipoamide (arsenate co-treatment: none) and -0.181 with potassium arsenate.
Consider LSM12 (UniProt Q3MHD2), for which the results for the thermal stability z-score in the experiment with lipoamide (setting [1]), in the experiment with lipoamide (arsenate co-treatment: none) and in the experiment with potassium arsenate were -0.205, 0.447 and -0.27, respectively.
The corresponding values for PI4K2A (UniProt Q9BTU6) are 0.0172, -0.189 and -0.0745.
The corresponding values for MAT2B (UniProt Q9NZL9) are -0.368, -0.144 and -0.705.
In the case of WIPF2 (UniProt Q8TF74), the figures for the thermal stability z-score with lipoamide (setting [1]), with lipoamide (arsenate co-treatment: none) and with potassium arsenate were 0.726, 0.703 and 0.0475, respectively.
With CEP83 (UniProt Q9Y592), the thermal stability z-score with lipoamide (setting [1]) was 0.829; with lipoamide (arsenate co-treatment: none), 1.19; with potassium arsenate it was -0.498.
The corresponding values for CHD6 (UniProt Q8TD26) are -8.33e-05, -0.00133 and -0.0483.
For the target CALU (UniProt O43852), the results for the thermal stability z-score with lipoamide (setting [1]), in the experiment with lipoamide (arsenate co-treatment: none) and with potassium arsenate were 0.0232, 0.235 and 0.255, respectively.
The corresponding values for ALDH6A1 (UniProt Q02252) are -0.315, 0.458 and 4.94.
On to RAB43 (UniProt Q86YS6), for which the thermal stability z-score with lipoamide (setting [1]) is -0.0743; with lipoamide (arsenate co-treatment: none), 1.38; in the experiment with potassium arsenate it was 1.35.
Take CDK8 (UniProt P49336): the thermal stability z-score in the experiment with lipoamide (setting [1]) was -0.0332; with lipoamide (arsenate co-treatment: none), -0.822; in the experiment with potassium arsenate, -1.66.
The corresponding values for ADCK1 (UniProt Q86TW2) are 0.36, -0.122 and -0.00585.
Consider DLST (UniProt P36957), for which the thermal stability z-score is 0.396 in the experiment with lipoamide (setting [1]), 0.38 with lipoamide (arsenate co-treatment: none) and -5.05 with potassium arsenate.
On to TUSC1 (UniProt Q2TAM9), for which the thermal stability z-score with lipoamide (setting [1]) is 0.515; with lipoamide (arsenate co-treatment: none), 0.368; in the experiment with potassium arsenate, 0.0895.
The corresponding values for THOC3 (UniProt Q96J01) are 0.252, 0.058 and -0.683.
Regarding TCF3 (UniProt P15923), the thermal stability z-score was -0.098 with lipoamide (setting [1]), -0.0941 with lipoamide (arsenate co-treatment: none) and -0.203 in the experiment with potassium arsenate.
In the case of HNRNPU (UniProt Q00839), the thermal stability z-score with lipoamide (setting [1]) came to 0.572; in the experiment with lipoamide (arsenate co-treatment: none) it was 1.39; with potassium arsenate it was 0.509.
For the target ATG5 (UniProt Q9H1Y0), the thermal stability z-score with lipoamide (setting [1]) was -0.255; in the experiment with lipoamide (arsenate co-treatment: none), -0.342; with potassium arsenate, -0.959.
For the target AP1S1 (UniProt P61966), the thermal stability z-score with lipoamide (setting [1]) is -0.264; with lipoamide (arsenate co-treatment: none), -0.339; with potassium arsenate, 0.802.
On to SH2D3A (UniProt Q9BRG2), for which the figures for the thermal stability z-score in the experiment with lipoamide (setting [1]), in the experiment with lipoamide (arsenate co-treatment: none) and in the experiment with potassium arsenate were 0.139, -0.263 and 0.0147, respectively.
The corresponding values for UBA3 (UniProt Q8TBC4) are -0.466, -0.282 and -0.0439.
Turning to TIMM50 (UniProt Q3ZCQ8), the thermal stability z-score was -0.412 in the experiment with lipoamide (setting [1]), -0.179 with lipoamide (arsenate co-treatment: none) and -0.391 in the experiment with potassium arsenate.
For TMSB10 (UniProt P63313), the thermal stability z-score with lipoamide (setting [1]) came out at 0.8; in the experiment with lipoamide (arsenate co-treatment: none), 0.288; with potassium arsenate, 0.014.
Turning to NARFL (UniProt Q9H6Q4), the thermal stability z-score with lipoamide (setting [1]) was 0.327; in the experiment with lipoamide (arsenate co-treatment: none) it was 0.0715; in the experiment with potassium arsenate, -0.0417.
CPT2 (UniProt P23786): the thermal stability z-score with lipoamide (setting [1]) was -0.296; in the experiment with lipoamide (arsenate co-treatment: none), 0.0116; with potassium arsenate, 0.228.
As for HMGN3 (UniProt Q15651), the thermal stability z-score with lipoamide (setting [1]) was determined as 1.36; with lipoamide (arsenate co-treatment: none) it was 0.402; with potassium arsenate, 0.493.
For the target MARS (UniProt P56192), the figures for the thermal stability z-score with lipoamide (setting [1]), in the experiment with lipoamide (arsenate co-treatment: none) and in the experiment with potassium arsenate were -1.37, -0.604 and 0.22, respectively.
Turning to PNPLA6 (UniProt Q8IY17), the thermal stability z-score in the experiment with lipoamide (setting [1]) is 0.758; in the experiment with lipoamide (arsenate co-treatment: none), 0.548; in the experiment with potassium arsenate, 0.246.
As to AKAP1 (UniProt Q92667), the thermal stability z-score came out at 0.866 with lipoamide (setting [1]), 0.652 with lipoamide (arsenate co-treatment: none) and 0.73 with potassium arsenate.
The corresponding values for RAD17 (UniProt O75943) are -0.324, -0.278 and -0.848.
The corresponding values for CD81 (UniProt P60033) are -0.142, -0.642 and -0.753.
The corresponding values for ELP6 (UniProt Q0PNE2) are 0.56, -0.141 and 0.998.
As for VDAC3 (UniProt Q9Y277), the thermal stability z-score with lipoamide (setting [1]) stood at 0.0571; with lipoamide (arsenate co-treatment: none), 0.18; with potassium arsenate it was 0.848.
In the case of CGGBP1 (UniProt Q9UFW8), the thermal stability z-score in the experiment with lipoamide (setting [1]) is -0.266; in the experiment with lipoamide (arsenate co-treatment: none) it was -0.574; in the experiment with potassium arsenate, -0.0749.
